Experimental data taken from patent publication US5166379A, “Synthesis of compounds with biological activity, and methods of use” (Harbor Branch Oceanographic Institution, Inc., priority 1990, dated 1992).
≈ marks a conversion by molar mass, not a printed value. Like-named read-outs stand apart in the source and are kept apart here.

What was measured:
[1] = test system: murine splenocyte suspensions (BALB/c and C57BL/6J mice); test: Mixed Lymphocyte Reaction (MLR); type: cell-based; details: Mus musculus, Splenocyte, read-out: % MLR (percentage of positive control)
Description: I. Mixed Lymphocyte Reaction
1. Murine splenocyte suspensions were prepared separately from BALB/c and C57BL/6J mice. […] The cell concentrations were adjusted to 2.5×10^6 cells/ml. Aliquots of each cell population were removed to separate tubes, and the remaining two cell suspensions combined to one tube.
(§1) 2. Serial, log10 dilutions of the pure compound were made in absolute ethanol, and 10 μl of each dilution was added to wells of microtiter test plates, and allowed to dry.
3. A volume of 0.2 ml of the combined splenocyte suspensions was added to triplicate test wells. Positive control wells received combined splenocyte suspensions in the absence of the test compounds. Negative control wells consisted of separate (not mixed) splenocyte suspensions cultured in the absence of the test compounds.
4. Plates were incubated in 5% CO2 at 37° C. for 86 hours.
5. A volume of 0.05 ml of ^3 H-thymidine (20 μCi/ml) was added to each well, and the plates were incubated in 5% CO2 at 37° C. for an additional 5 hours.
6. The contents of each well of the microtiter plates were harvested onto glass fiber filter strips, and the resulting filter discs placed in scintillation vials to which 2.0 ml of scintillation fluid was added.
7. The amount of incorporated ^3 H-thymidine was determined by counting the vials in a liquid scintillation counter.
8. Triplicate counts were averaged, and the data reported as a percentage of the positive control.

[2] = Lymphocyte Viability Assay (LCV); type: cell-based, murine; details: mouse, splenocytes, read-out: % LCV (percentage of positive control)
Description: II. Lymphocyte Viability Assay
1. Compounds were similarly tested in parallel with the MLR to determine their toxic effects on lymphoid cells using the lymphocyte viability assay (LCV).
as §1
3. Murine splenocyte suspensions were prepared from BALB/c mice. […] The cell concentrations were adjusted to 2.5×10^6 cells/ml.
4. A volume of 0.2 ml of the splenocyte suspension was added to replicate test wells. Positive control wells received splenocyte suspensions in the absence of the test compounds.
5. Plates were incubated at 37° C. for 86 hours. At the end of the incubation period, a volume of 75 μl of a 2.0 mg/ml solution of MTT was added to each well, and the plates were returned to the incubator for an additional 5 hours.
6. The supernatants from each microwell were then removed, and a volume of 200 μl of isopropanol was added and the contents mixed.
7. Values were obtained by comparing the optical densities (determined at 570 and 650 nm) of wells containing the test compounds with those of wells containing cells and medium only (positive control). The results are expressed as a percentage of the positive control.
8. Replicate counts were averaged, and the data reported as a percentage of the positive control. An LCV value of less than 60% of the positive control is an indication of cytotoxicity of the test compounds for lymphoid cells.

P388 cells = test: Antiproliferative effects against P388 cells (antitumor, MTT); type: cell-based; details: Mus musculus, P388, 48 hour exposure
Description: IV. Antitumor Methodology
To assess the antiproliferative effects against P388 cells, 200 μl cultures (96-well tissue culture plates, Nunc, Denmark) were established at 1×10^5 cells/ml in drug-free medium or medium containing the pure compounds/crude extracts at a final dilution or 1:500 and at various concentrations. Solvent for all dilutions was methanol, which was removed from plates under vacuum. All experimental cultures were initiated in media containing Gentamicin sulfate (50 μg/ml; Schering Corporation, Kenilworth, NJ).
To quantitate the effects of pure compounds/crude extracts on cell proliferation, 75 μl of warm growth medium containing 5 mg/ml MTT was added to each well, cultures were returned to the incubator, and were left undisturbed for 90 minutes. To spectrophotometrically quantitate formation of reduced formazan, plates were centrifuged (900×g, 5 minutes), culture fluids removed by aspiration, and 200 μl of acidified isopropanol (2 ml concentrated HCl/liter isopropanol) added per well. The absorbance of the resulting solutions were measured at 570 nm with a plate reader (MR700 Microplate Reader, Dynatech Laboratories, Chantilly, VA).

[3] = test system: graft vs host reaction in CB6F1 mice grafted with BALB/c splenocytes; test: Graft vs. Host (GVHR) in vivo activity; details: for % Suppression / Stim. Index (spleen index): i.p.
Description: III. Graft vs. Host (GVHR) In Vivo Activity
1. Donor mice (BALB/c) were sacrificed, spleens removed, and spleen cell suspensions prepared in tissue culture medium.
2. The above splenocyte suspension was adjusted to 10.0×10^7 cells/ml.
3. Mice were treated with varying dosages of the test compound. […] Treatment consisted of intraperitoneal injections, daily for 7 days. Dosages were calculated on a mg per kg body weight basis.
4. On day 1 of the first treatment regimen, recipient mice (CB6) were injected intraperitoneally with 0.50 ml (50.0×10^6) of the donor (BALB/c) splenocyte suspension.
5. Controls consisted of the following:
POS--mice receiving BALB/c splenocytes (Positive Control)
SYN--mice receiving CB6 splenocytes (Syngeneic Control)
CYP--mice receiving Cyclophosphamide (100 mg/kg) and BALB/c splenocytes
6. At the end of five days, recipient mice were sacrificed, weighed, and spleens removed and weighed.
7. A spleen index of 1.0 was assigned to the mean spleen weights (adjusted to body weight) of the SYN controls. The spleen index of treated mice was determined by comparing the spleen weights of those mice with that of the […]. […] As a general rule, a spleen index of less than the positive control is indicative of an immunosuppressive (ID) compound.
^a CB6F1 mice (5 mice per group) were grafted with 5 ×
10^7 BALB/c spelnocytes, i.p. on Day 0. Groups were injected, ii.p.,
with drug (or vehicle) on Days 1-6. Positive designates grafted mice
receiving vehicle alone.
^b Number of surviving mice at end of experiment.
(Stimulation Index of Syngeneic group (CB6F1 ->CB6F1) = 100

## C#CC(O)/C=C/CCCCCCCCCCCCCCC (stereo not shown) [CH3 (CH2)14 CH=CH--CHOH--C≡CH]
[1]; 0.05 μg/ml
  activity at 0.05 µg/mL: 0%
[1]; 0.2 μg/ml
  activity at 0.2 µg/mL: 0%
[1]; 0.8 μg/ml
  activity at 0.8 µg/mL: 0%
[1]; 3.1 μg/ml
  activity at 3.1 µg/mL: 0%
[1]; 12.5 μg/ml
  activity at 12.5 µg/mL: 0%
[1]; 50 μg/ml
  activity at 50 µg/mL: 0%
[2]; 0.05 μg/ml
  viability: 63%
[2]; 0.2 μg/ml
  viability: 42%
[2]; 0.8 μg/ml
  viability: 20%
[2]; 3.1 μg/ml
  viability: 19%
[2]; 12.5 μg/ml
  viability: 19%
[2]; 50 μg/ml
  viability: 11%
P388 cells
  IC50: 9.4 µg/mL (≈ 32.1 µM)
[3]; 25.0 mg/kg
  % Suppression: 45%
  Stim. Index (spleen index): 1.63 ± .25
[3]; 50.0 mg/kg
  % Suppression: 25%
  Stim. Index (spleen index): 1.86 ± .18
[3]; 100 mg/kg
  % Suppression: 0%
  Stim. Index (spleen index): 2.35 ± .15
[3]; 150.0 mg/kg
  % Suppression: 81%
  Stim. Index (spleen index): 1.22 ± .03
[3]; mouse, in vivo
  suppression of the GVHR (splenomegaly response), in words: could mediate the suppression of the GVHR
